From patent publication US11091494B2, “Crystal form of acalabrutinib and preparation method and use thereof” (Crystal Pharmaceutical (Suzhou) Co., Ltd., priority 2018, dated 2021)

Experiments:
[1] = cited from earlier work; for Highest water content: water content varies in different conditions
[2] = Intrinsic dissolution rate in pH 2.5 HCl/NaCl aqueous solution; format: physicochemical; settings: for Cumulative dissolution / IDR (intrinsic dissolution rate): pH 2.5 HCl/NaCl, 37° C.; for Cumulative dissolution: 0.5 cm^2 pellet; for IDR (intrinsic dissolution rate): slope over 0-45 minutes
Experimental: (§1) Approximately 200 mg of Form A and Form I in WO2017002095A1 were added into the die, compressed at 10 kN and held for 1 minute to obtain a pellet having a surface area of 0.5 cm^2. The whole tool with the pellet was transferred to a dissolution apparatus to test the intrinsic dissolution rate. The slope (mg/min) was calculated according to the data within 0-45 minutes. Intrinsic dissolution rate (IDR, mg/min/cm^2) was further calculated according to the slope.
as §1, with “Form D” for “Form A”
as §1, with “Form F” for “Form A”, “intrinsic dissolution.” for “intrinsic dissolution rate.”
as §1, with “Form G” for “Form A”, “intrinsic dissolution.” for “intrinsic dissolution rate.”
as §1, with “Form CS15” for “Form A”, “intrinsic dissolution.” for “intrinsic dissolution rate.”

[3] = Compressibility (tensile strength of compressed tablet); format: physicochemical; settings: about 80 mg, φ6 mm round tooling, compressed at 10 kN
Experimental: (§2) Approximately 80 mg of Form A and Form I in WO2017002095A1 were weighed into the dies of a φ6 mm round tooling, compressed at 10 kN manually, then stored in a desiccator for 24 hours until complete elastic recovery. Radial crushing force (hardness, H) was tested with an intelligent tablet hardness tester. Diameter (D) and thickness (L) were tested with a caliper. Tensile strength of the powder that with different hardness was calculated with the following formula: T=2H/πDL. Under a certain force, the greater the tensile strength, the better the compressibility.
as §2, with “Form D” for “Form A”, “manually, and” for “manually,”, “powder” for “powder that”
as §2, with “of Form F and Form” for “of Form A and Form”, “kN manually, and then stored” for “kN manually, then stored”, “tested with caliper. Tensile” for “tested with a caliper. Tensile”, “the powder with different” for “the powder that with different”
Approximately 80 mg of Form G and Form I of WO2017002095A1 were weighed into the dies of a φ6 mm round tooling, compressed at 10 kN manually, and then stored in a desiccator for 24 hours until complete elastic recovery. Radial crushing force (hardness, H)) was tested with an intelligent tablet hardness tester. Diameter (D) and thickness (L) were tested with caliper. Tensile strength of the powder with different hardness was calculated with the following formula: T=2H/πDL. Under a certain force, the greater the tensile strength, the better the compressibility.
as §2, with “of Form CS15 and Form” for “of Form A and Form”, “kN manually, and then stored” for “kN manually, then stored”, “tested with caliper. Tensile” for “tested with a caliper. Tensile”, “the powder with different” for “the powder that with different”

[4] = Stability of crystalline form on storage, checked by XRPD; format: physicochemical; settings: for Solid form: 2 months, XRPD
Experimental: Approximately 10 mg of Form A of the present disclosure was weighed and stored at different conditions of 25° C./60% RH in open dish, 25° C./60% RH in closed dish, 40° C./75% RH in open dish, and 40° C./75% RH in closed dish. Crystalline forms were checked by XRPD.
Approximately 10 mg of Form D of the present disclosure was weighed and stored at different conditions of 25° C./60% RH in closed dish, 25° C./60% RH in open dish, 40° C./75% RH in closed dish. Crystalline form was checked by XRPD.
Approximately 10 mg of Form F of the present disclosure was weighed and stored at different conditions of 25° C./60% RH in closed dish, 25° C./60% RH in open dish, and 40° C./75% RH in closed dish, 40° C./75% RH in open dish. Crystalline forms were checked by XRPD.
Approximately 10 mg of Form G of the present disclosure was weighed and stored at 25° C./60% RH in closed dish. Crystalline forms were checked by XRPD.
Approximately 10 mg of Form CS15 of the present disclosure was weighed and stored at different conditions of 25° C./60% RH in open dish, 25° C./60% RH in closed dish. Crystalline forms were checked by XRPD.

[5] = Adhesiveness (amount of material sticking to the punch); format: physicochemical; settings: about 30 mg, φ8 mm round tooling, 10 kN, compression repeated twice
Experimental: (§3) Approximately 30 mg of Form A and Form I in WO2017002095A1 were weighed, added into the dies of a φ8 mm round tooling, compressed at 10 kN and held for about 30 s. The amount of material sticking to the punch was weighed. The compression was repeated twice and the cumulative amount and average amount of material sticking to the punch during the compression were recorded.
as §3, with “Form F” for “Form A”
as §3, with “Form G” for “Form A”

Cumulative dissolution ([2]; 0 min) [mg]	Cumulative dissolution ([2]; 5 min) [mg]	Cumulative dissolution ([2]; 10 min) [mg]	Cumulative dissolution ([2]; 15 min) [mg]	Cumulative dissolution ([2]; 20 min) [mg]	Cumulative dissolution ([2]; 25 min) [mg]	Cumulative dissolution ([2]; 30 min) [mg]	Cumulative dissolution ([2]; 35 min) [mg]	Cumulative dissolution ([2]; 45 min) [mg]	IDR (intrinsic dissolution rate) [2] [mg/min/cm^2]	Tensile strength [3]	SMILES	Highest water content [1] [%]	Stability of the crystalline form ([1]; as disclosed in WO2017002095A1)	other results
											CC#CC(=O)N1CCC[C@H]1c1nc(-c2ccc(C(=O)Nc3ccccn3)cc2)c2c(N)nccn12 [Crystalline form II, (S)-4-(8-amino-3-(1-(but-2-ynoyl)pyrrolidin-2-yl)imidazo[1,5-a]pyrazin-1-yl)-N-(pyridin-2-yl)benzamide]	10		Flowability ([1]; as disclosed in WO2017002095A1): poor
											CC#CC(=O)N1CCC[C@H]1c1nc(-c2ccc(C(=O)Nc3ccccn3)cc2)c2c(N)nccn12 [Crystalline form III, (S)-4-(8-amino-3-(1-(but-2-ynoyl)pyrrolidin-2-yl)imidazo[1,5-a]pyrazin-1-yl)-N-(pyridin-2-yl)benzamide]	8	unstable	
											CC#CC(=O)N1CCC[C@H]1c1nc(-c2ccc(C(=O)Nc3ccccn3)cc2)c2c(N)nccn12 [Crystalline form IV, (S)-4-(8-amino-3-(1-(but-2-ynoyl)pyrrolidin-2-yl)imidazo[1,5-a]pyrazin-1-yl)-N-(pyridin-2-yl)benzamide]		unstable	
0.00	0.70	1.73	2.82	3.57	4.77	6.26	7.36	9.72	0.4112	0.83 MPa	CC#CC(=O)N1CCC[C@H]1c1nc(-c2ccc(C(=O)Nc3ccccn3)cc2)c2c(N)nccn12 [Form D, (S)-4-(8-amino-3-(1-(but-2-ynoyl)pyrrolidin-2-yl)imidazo[1,5-a]pyrazin-1-yl)-N-(pyridin-2-yl)benzamide]			IDR relative to that of Form I in WO2017002095A1 ([2]; pH 2.5 HCl/NaCl solution): 1.1 times; Time kept stable (crystalline state doesn't change) ([4]; 25° C./60% RH in closed dish): at least 2 months; Solid form ([4]; 25° C./60% RH in closed dish): Form D; Chemical purity on storage ([4]; 25° C./60% RH in open and closed dishes, at least 2 months): remains substantially unchanged; Time kept stable (crystalline state doesn't change) ([4]; 25° C./60% RH in open dish): at least 2 months; Solid form ([4]; 25° C./60% RH in open dish): Form D; Time kept stable (crystalline state doesn't change) ([4]; 40° C./75% RH in closed dish): at least 2 months; Solid form ([4]; 40° C./75% RH in closed dish): Form D
0.00	0.92	1.64	2.81	3.66	4.62	5.58	6.40	8.16	0.3656	Unable to be compressed	CC#CC(=O)N1CCC[C@H]1c1nc(-c2ccc(C(=O)Nc3ccccn3)cc2)c2c(N)nccn12 [Form I in WO2017002095A1, (S)-4-(8-amino-3-(1-(but-2-ynoyl)pyrrolidin-2-yl)imidazo[1,5-a]pyrazin-1-yl)-N-(pyridin-2-yl)benzamide, reference compound]			Average amount (material sticking to the punch) [5]: 45 µg; Cumulative amount (material sticking to the punch) [5]: 90 µg
